Experimental data reported in PubChem BioAssay AID210 (DTP/NCI, 2004).
Where “and” joins values, the source holds several entries; their conditions need not be identical. Identical values can stand only once. Toxic doses and inconclusive results are not listed. *1 amine or outer side, *2 acyl side, *3 side chain or, on linkers, in order; H or OH if unused. Where a SMILES comes first, the peptide text is derived from it. Bridges are numbered along the chain shown (N, C = ends). Roman numbers before positions name the chains, in order. [ ]: non-standard residue; d: D form. Actinocin(1to9) = Cc1c2oc3c(C)ccc(C(=O)[*:2])c3nc-2c(C(=O)[*:1])c(N)c1=O; NMeV = CN[CH](C(=O)O)C(C)C; Aze = O=C(O)[CH]1CCN1; Sar = CNCC(=O)O

Test system: CD2F1 mice, ip Colon 26 adenocarcinoma, median survival T/C
Test: NCI In Vivo Anticancer Drug Screen. Data for tumor model Colon 26 Adenocarcinoma (intraperitoneal) in CD2F1 (CDF1) mice
Settings: endpoint: median survival time, higher = longer survival
Protocol: The antitumor activity of compounds was measured in mice bearing transplantable tumors. Survival or tumor size were measured and the results are expressed as the measurement made in the treated group (T) divided by the measurement made in the vehicle treated control group (C). The tumor model used in this assay is Colon 26 Adenocarcinoma (intraperitoneal) in CD2F1 (CDF1) mice

With `C=C1C(=O)C23C(O)CC4C5(C)CCCC4(C(O)OC5)C2C(OC(C)=O)CC1C3O` (stereo not given) the T/C (dose: 8.0 mg/kg/injection, schedule: Q04DX002 (ip), vehicle: saline with Tween-80) was 116 % of control, the T/C (dose: 16.0 mg/kg/injection, schedule: Q04DX002 (ip), vehicle: saline with Tween-80) was 109 % of control and the T/C (dose: 32.0 mg/kg/injection, schedule: Q04DX002 (ip), vehicle: saline with Tween-80) was 92 % of control. The T/C (dose: 64.0 mg/kg/injection, schedule: Q04DX002 (ip), vehicle: saline with Tween-80) was 103 % of control.

For `CO[C@@]12[C@H](COC(N)=O)C3=C(C(=O)C(C)=C(N)C3=O)N1C[C@@H]1N[C@@H]12`, the T/C (dose: 1.0 mg/kg/injection, schedule: Q01DX004 (ip), vehicle: saline) was 122 % of control, the T/C (dose: 1.0 mg/kg/injection, schedule: Q03DX002 (ip), vehicle: saline) was 120 % of control and the T/C (dose: 2.0 mg/kg/injection, schedule: Q01DX005 (ip), vehicle: saline) was 96 % of control. The T/C (dose: 2.0 mg/kg/injection, schedule: Q03DX002 (ip), vehicle: saline) was 113 % of control, the T/C (dose: 2.0 mg/kg/injection, schedule: Q07DX003 (ip), vehicle: Klucel (hydroxypropylcellulose) (HPC)) was 195 % of control and the T/C (dose: 2.0 mg/kg/injection, schedule: Q07DX003 (ip), vehicle: saline) was 152 % of control. The T/C (dose: 2.9 mg/kg/injection, schedule: Q07DX003 (ip), vehicle: Klucel (hydroxypropylcellulose) (HPC)) was 183 % of control, the T/C (dose: 2.9 mg/kg/injection, schedule: Q07DX003 (ip), vehicle: saline) was 169 % of control and the T/C (dose: 3.0 mg/kg/injection, schedule: Q01DX004 (ip), vehicle: saline) was 114 % of control. For the same molecule, the T/C (dose: 3.0 mg/kg/injection, schedule: Q01DX005 (ip), vehicle: saline) was 110 % of control, the T/C (dose: 3.0 mg/kg/injection, schedule: Q03DX002 (ip), vehicle: saline) was 117 % of control and the T/C (dose: 4.2 mg/kg/injection, schedule: Q07DX003 (ip), vehicle: Klucel (hydroxypropylcellulose) (HPC)) was 223 % of control. The T/C (dose: 4.2 mg/kg/injection, schedule: Q07DX003 (ip), vehicle: saline) was 190 % of control, the T/C (dose: 4.5 mg/kg/injection, schedule: Q01DX005 (ip), vehicle: saline) was 114 % of control and the T/C (dose: 4.5 mg/kg/injection, schedule: Q03DX002 (ip), vehicle: saline) was 110 % of control. For the same molecule, the T/C (dose: 6.0 mg/kg/injection, schedule: Q01DX005 (ip), vehicle: saline) was 121 % of control, the T/C (dose: 6.0 mg/kg/injection, schedule: Q07DX003 (ip), vehicle: Klucel (hydroxypropylcellulose) (HPC)) was 87 % of control and the T/C (dose: 6.0 mg/kg/injection, schedule: Q07DX003 (ip), vehicle: saline) was 231 % of control.

`Cc1ncc([N+](=O)[O-])n1CCSC(N)=O` was tested, and the T/C (dose: 12.5 mg/kg/injection, schedule: Q04DX003 (ip), vehicle: saline with Tween-80) was 94 % of control, the T/C (dose: 25.0 mg/kg/injection, schedule: Q04DX003 (ip), vehicle: saline with Tween-80) was 124 % of control and 96 % of control and the T/C (dose: 50.0 mg/kg/injection, schedule: Q04DX003 (ip), vehicle: saline with Tween-80) was 89 % of control. For the same molecule, the T/C (dose: 100.0 mg/kg/injection, schedule: Q04DX003 (ip), vehicle: saline with Tween-80) was 105 % of control and 95 % of control, the T/C (dose: 200.0 mg/kg/injection, schedule: Q04DX003 (ip), vehicle: saline with Tween-80) was 90 % of control and 94 % of control and the T/C (dose: 400.0 mg/kg/injection, schedule: Q04DX003 (ip), vehicle: saline with Tween-80) was 96 % of control.

With `CCN(CC)CCNc1ccc(C)c2sc3ccccc3c(=O)c12` the T/C (dose: 25.0 mg/kg/injection, schedule: Q04DX002 (ip), vehicle: suspension in saline) was 102 % of control, the T/C (dose: 50.0 mg/kg/injection, schedule: Q04DX002 (ip), vehicle: suspension in saline) was 105 % of control and the T/C (dose: 100.0 mg/kg/injection, schedule: Q04DX002 (ip), vehicle: suspension in saline) was 103 % of control. For the same molecule, the T/C (dose: 200.0 mg/kg/injection, schedule: Q04DX002 (ip), vehicle: suspension in saline) was 119 % of control.

`O=NN(CCCl)C(=O)NC1CCCCC1` was tested, and the T/C (dose: 10.0 mg/kg/injection, schedule: Q04DX003 (ip), vehicle: carboxymethylcellulose (CMC)) was 121 % of control, the T/C (dose: 40.0 mg/kg/injection, schedule: Q04DX003 (ip), vehicle: carboxymethylcellulose (CMC)) was 196 % of control and the T/C (dose: 80.0 mg/kg/injection, schedule: Q04DX003 (ip), vehicle: carboxymethylcellulose (CMC)) was 159 % of control.

With `O=C1c2ccccc2C(=O)c2c(NCCN3CCNCC3)ccc(NCCN3CCNCC3)c21` the T/C (dose: 4.0 mg/kg/injection, schedule: Q01DX009 (ip), vehicle: acid diluted with saline) was 106 % of control, the T/C (dose: 8.0 mg/kg/injection, schedule: Q01DX009 (ip), vehicle: acid diluted with saline) was 114 % of control and the T/C (dose: 16.0 mg/kg/injection, schedule: Q01DX009 (ip), vehicle: acid diluted with saline) was 114 % of control.

`Cc1c2oc3c(C)ccc(C(=O)NC4C(=O)NC(C(C)C)C(=O)N5CCCC5C(=O)N(C)CC(=O)N(C)C(C(C)C)C(=O)OC4C)c3nc-2c(C(=O)NC2C(=O)NC(C(C)C)C(=O)N3CCC3C(=O)N(C)CC(=O)N(C)C(C(C)C)C(=O)OC2C)c(N)c1=O` (stereo not given) (I: TV[Aze][Sar][NMeV] / II: TVP[Sar][NMeV]; ester I:1-I:C, II:1-II:C; linker I:N-II:N via Actinocin(1to9); configuration not given here) was tested, and the T/C (dose: 0.08 mg/kg/injection, schedule: Q04DX003 (ip), vehicle: saline + alcohol) was 100 % of control, the T/C (dose: 0.14 mg/kg/injection, schedule: Q04DX003 (ip), vehicle: saline + alcohol) was 123 % of control and the T/C (dose: 0.23 mg/kg/injection, schedule: Q04DX003 (ip), vehicle: saline + alcohol) was 119 % of control. For the same molecule, the T/C (dose: 0.65 mg/kg/injection, schedule: Q04DX003 (ip), vehicle: saline + alcohol) was 151 % of control, the T/C (dose: 270.0 micrograms/kg/injection, schedule: Q04DX003 (ip), vehicle: saline + alcohol) was 108 % of control and the T/C (dose: 375.0 micrograms/kg/injection, schedule: Q01DX001 (ip), vehicle: saline + alcohol) was 119 % of control. For the same molecule, the T/C (dose: 450.0 micrograms/kg/injection, schedule: Q04DX003 (ip), vehicle: saline + alcohol) was 151 % of control, the T/C (dose: 750.0 micrograms/kg/injection, schedule: Q01DX001 (ip), vehicle: saline + alcohol) was 102 % of control and the T/C (dose: 750.0 micrograms/kg/injection, schedule: Q04DX003 (ip), vehicle: saline + alcohol) was 157 % of control.

`COC(=O)[C@@]12OC[C@]34[C@H]([C@@H](O)[C@@H]1O)[C@@]1(C)CC(=O)C(O)=C(C)[C@@H]1C[C@H]3OC(=O)[C@H](OC(=O)/C=C(\C)C(C)C)[C@@H]24` was tested, and the T/C (dose: 0.66 mg/kg/injection, schedule: Q04DX003 (iv), vehicle: saline with Tween-80) was 97 % of control, the T/C (dose: 1.0 mg/kg/injection, schedule: Q04DX003 (iv), vehicle: saline with Tween-80) was 94 % of control and the T/C (dose: 1.5 mg/kg/injection, schedule: Q04DX003 (iv), vehicle: saline with Tween-80) was 94 % of control. The T/C (dose: 2.3 mg/kg/injection, schedule: Q04DX003 (iv), vehicle: saline with Tween-80) was 92 % of control and the T/C (dose: 3.5 mg/kg/injection, schedule: Q04DX003 (iv), vehicle: saline with Tween-80) was 96 % of control.

For `CCC1CN2C(=N1)c1ccccc1-c1cc(Cl)ccc12` (stereo not given), the T/C (dose: 2.5 mg/kg/injection, schedule: Q04DX003 (ip), vehicle: saline) was 102 % of control, the T/C (dose: 2.5 mg/kg/injection, schedule: Q04DX003 (ip), vehicle: suspension in saline) was 107 % of control and the T/C (dose: 5.0 mg/kg/injection, schedule: Q04DX003 (ip), vehicle: saline) was 111 % of control. The T/C (dose: 5.0 mg/kg/injection, schedule: Q04DX003 (ip), vehicle: suspension in saline) was 101 % of control, the T/C (dose: 10.0 mg/kg/injection, schedule: Q04DX003 (ip), vehicle: saline) was 92 % of control and the T/C (dose: 10.0 mg/kg/injection, schedule: Q04DX003 (ip), vehicle: suspension in saline) was 106 % of control. For the same molecule, the T/C (dose: 40.0 mg/kg/injection, schedule: Q04DX003 (ip), vehicle: saline) was 121 % of control and the T/C (dose: 40.0 mg/kg/injection, schedule: Q04DX003 (ip), vehicle: suspension in saline) was 124 % of control.
